Among the data in ChEMBL document CHEMBL4311976, “Design, synthesis and biological evaluation of novel 7H-pyrrolo[2,3-d]pyrimidine derivatives as potential FAK inhibitors and anticancer agents” (Eur J Med Chem, 2019) are IC50 values, retold here.

Test in all cases: cells
Assay [1] deals with A549. Particulars: Homo sapiens, A549, 72 h.
Description: Antiproliferative activity against human A549 cells assessed as reduction in cell viability after 72 hrs by MTT assay
The subject of assay [2] is HK-2. Particulars: Homo sapiens, HK-2, 72 h.
Description: Cytotoxicity against human HK2 cells assessed as reduction in cell viability after 72 hrs by MTT assay
For assay [3], the system named is MDA-MB-231. Conditions: Homo sapiens, MDA-MB-231, 72 h.
Description: Antiproliferative activity against human MDA-MB-231 cells assessed as reduction in cell viability after 72 hrs by MTT assay

Each structure is given as a SMILES string. A value given as a limit tells only on which side of the number the result lay.

For orientation: IC50 means the concentration that inhibits the measured activity by half. Low readings indicate inhibition by little substance, high ones a need for much substance. Regarding `CP(C)(=O)c1ccccc1Nc1nc(Nc2ccc(N3CCNCC3)cc2)nc2[nH]ccc12`, the IC50 in assay [1] was 0.53 µM; in assay [2], 8.33 µM; in assay [3] it was 4.35 µM.

Turning to `CP(C)(=O)c1ccccc1Nc1nc(Nc2cnn(CC(F)F)c2)nc2[nH]ccc12`, the IC50 in assay [1] turned out to be 7.53 µM; in assay [2], 4.4 µM; in assay [3], 3.43 µM.

`CP(C)(=O)c1ccccc1Nc1nc(Nc2ccc(C(=O)NC3CCNCC3)cc2)nc2[nH]ccc12`: the results for the IC50 in assay [1], in assay [2] and in assay [3] were 2.93 µM, > 25 µM and 17.8 µM, respectively.

Take `CP(C)(=O)c1ccccc1Nc1nc(Nc2ccc(C(=O)NC3CCNCC3)c(F)c2)nc2[nH]ccc12`: the 50% inhibitory concentration (IC50) in assay [1] is 1.61 µM; in assay [2], 21.9 µM; in assay [3], 4.17 µM.

For the molecule `CP(C)(=O)c1ccccc1Nc1nc(Nc2cnn(C3CCNCC3)c2)nc2[nH]ccc12`, the IC50 is 14.5 µM in assay [1], > 25 µM in assay [2] and 14.1 µM in assay [3].

In the case of `COCCn1cc(Nc2nc(Nc3ccccc3P(C)(C)=O)c3cc[nH]c3n2)cn1`, the IC50 was 17.4 µM in assay [1], > 25 µM in assay [2] and 8.18 µM in assay [3].

With `CCNS(=O)(=O)c1ccc(Nc2nc(Nc3ccccc3P(C)(C)=O)c3cc[nH]c3n2)cc1`, the half-inhibitory concentration (IC50) in assay [1] is 1.02 µM; in assay [2] it was 4.77 µM; in assay [3] it was 1.31 µM.

`CNC(=O)c1ccccc1Nc1nc(Nc2ccc(N3CCOCC3)cc2OC)ncc1Cl`: the values for the IC50 in assay [1], in assay [2] and in assay [3] were 1.02 µM, 8.2 µM and 4.24 µM, respectively.

`CP(C)(=O)c1ccccc1Nc1nc(Nc2cnn(C3CCOCC3)c2)nc2[nH]ccc12`: the IC50 in assay [1] was 7.01 µM; in assay [2] it was 14.4 µM; in assay [3], 5.53 µM.

As to `CP(C)(=O)c1ccccc1Nc1nc(Nc2ccc(C(=O)N3CCNCC3)cc2)nc2[nH]ccc12`, the IC50 is 9.88 µM in assay [1], > 25 µM in assay [2] and 8.8 µM in assay [3].

In the case of `CP(C)(=O)c1ccccc1Nc1nc(Nc2ccc(C(=O)NC3CCOCC3)cc2)nc2[nH]ccc12`, the IC50 in assay [1] is 3.72 µM; in assay [2], 9.75 µM; in assay [3], 6.53 µM.

Consider `CP(C)(=O)c1ccccc1Nc1nc(Nc2ccc(C(=O)N3CCOCC3)cc2)nc2[nH]ccc12`, for which the half-inhibitory concentration (IC50) was determined as 9.8 µM in assay [1], 8.89 µM in assay [2] and 14.3 µM in assay [3].

For the molecule `CNC(=O)c1ccc(Nc2nc(Nc3ccccc3P(C)(C)=O)c3cc[nH]c3n2)cc1`, the IC50 is 3.45 µM in assay [1], 9.16 µM in assay [2] and 4.17 µM in assay [3].

On to `COc1cc(C(=O)NC2CCNCC2)c(F)cc1Nc1nc(Nc2ccccc2P(C)(C)=O)c2cc[nH]c2n1`, for which the IC50 in assay [1] was 2.24 µM; in assay [2], > 25 µM; in assay [3], 11.3 µM.

For `CP(C)(=O)c1ccccc1Nc1nc(Nc2ccc(C(=O)N[C@H]3CCCNC3)cc2)nc2[nH]ccc12`, the IC50 in assay [1] is 2.48 µM; in assay [2], > 25 µM; in assay [3], 12.4 µM.
